Active and inactive are the calls of the source. The calls are words filed in the database; no cut-off is given here.
Key:
[1] = Cytotoxicity against M-CSF induced C57BL/6J mouse BMMC cells assessed as cell viability at 10 uM incubated for 48 hrs by CCK-8 assay relative to control; assay type: toxicity, cell-based; conditions: read-out: Activity
[2] = AUC (0 to t) in ICR mouse at 1 mg/kg, iv measured upto 24 hrs by LC-MS/MS analysis; assay type: ADME, organism-based; conditions: in vivo
[3] = Total plasma clearance in ICR mouse at 1 mg/kg, iv measured upto 24 hrs by LC-MS/MS analysis; assay type: ADME, organism-based
[4] = Tmax in ICR mouse at 10 mg/kg, po measured upto 24 hrs by LC-MS/MS analysis; assay type: ADME, organism-based; conditions: in vivo
[5] = Cmax in ICR mouse at 10 mg/kg, po measured upto 24 hrs by LC-MS/MS analysis; assay type: ADME, organism-based; conditions: in vivo
[6] = AUC (0 to t) in ICR mouse at 10 mg/kg, po measured upto 24 hrs by LC-MS/MS analysis; assay type: ADME, organism-based; conditions: in vivo
[7] = AUC (0 to infinity) in ICR mouse at 10 mg/kg, po measured upto 24 hrs by LC-MS/MS analysis; assay type: ADME, organism-based; conditions: in vivo
[8] = Oral bioavailability in ICR mouse at 10 mg/kg measured upto 24 hrs by LC-MS/MS analysis; assay type: ADME, organism-based; conditions: in vivo
BMMC [9] = assay: Anti-osteoclastogenesis activity in M-CSF/RANKL-induced C57BL/6J mouse BMMC cells assessed as reduction in size and amount of osteoclasts by measuring reduction in TRAP-positive multinucleated cells incubated for 7 days by TRAP staining based analysis; assay type: functional, cell-based; conditions: dose 0.05-0.5 µM, time 7.0 day
BMMC [10] = assay: Anti-osteoclastogenesis activity in M-CSF/RANKL-induced C57BL/6J mouse BMMC cells assessed as reduction in size and amount of osteoclasts by measuring reduction in F-actin ring formation incubated for 7 days by rhodamine-labeled phalloidin staining based fluorescence microscopic analysis; assay type: functional, cell-based; conditions: dose 0.05-0.5 µM, time 7.0 day
BMMC [11] = assay: Anti-osteoclastogenesis activity in M-CSF/RANKL-induced C57BL/6J mouse BMMC cells assessed as inhibition of osteoclast differentiation at mid-stage at 0.1 uM measured after 3 to 5 days by TRAP staining based analysis relative to control; assay type: functional; conditions: time 3-5 day
BMMC [12] = assay: Anti-osteoclastogenesis activity in M-CSF/RANKL-induced C57BL/6J mouse BMMC cells assessed as reduction in TRAP mRNA expression at 0.05 to 5 uM measured after 2 days by RT-qPCR analysis; assay type: functional, cell-based; conditions: dose 0.05-5 µM, time 2.0 day
BMMC [13] = assay: Anti-osteoclastogenesis activity in M-CSF/RANKL-induced C57BL/6J mouse BMMC cells assessed as reduction in c-Fos mRNA expression at 0.05 to 5 uM measured after 2 days by RT-qPCR analysis; assay type: functional, cell-based; conditions: dose 0.05-5 µM, time 2.0 day
BMMC [14] = assay: Anti-osteoclastogenesis activity in M-CSF/RANKL-induced C57BL/6J mouse BMMC cells assessed as reduction in MMP9 mRNA expression at 0.05 to 5 uM measured after 2 days by RT-qPCR analysis; assay type: functional, cell-based; conditions: dose 0.05-5 µM, time 2.0 day
BMMC [15] = assay: Anti-osteoclastogenesis activity in M-CSF/RANKL-induced C57BL/6J mouse BMMC cells assessed as reduction in TRAP protein expression measured after 3 days by Western blot analysis; assay type: functional, cell-based; conditions: dose 0.05-5 µM, time 3.0 day
BMMC [16] = assay: Anti-osteoclastogenesis activity in M-CSF/RANKL-induced C57BL/6J mouse BMMC cells assessed as inhibition of CALCR gene expression by RNA sequencing analysis; assay type: functional, cell-based
BMMC [17] = assay: Anti-osteoclastogenesis activity in M-CSF/RANKL-induced C57BL/6J mouse BMMC cells assessed as inhibition of CTSK gene expression by RNA sequencing analysis; assay type: functional, cell-based
BMMC [18] = assay: Anti-osteoclastogenesis activity in M-CSF/RANKL-induced C57BL/6J mouse BMMC cells assessed as inhibition of FOS gene expression by RNA sequencing analysis; assay type: functional, cell-based
BMMC [19] = assay: Anti-osteoclastogenesis activity in M-CSF/RANKL-induced C57BL/6J mouse BMMC cells assessed as inhibition of Nfatc1 gene expression by RNA sequencing analysis; assay type: functional, cell-based
[20] = Toxicity in ovariectomized female C57BL/6 mouse assessed as reduction in body weight at 0.2 to 0.6 mg/kg, ip administered every day for 6 weeks; assay type: organism-based; conditions: in vivo, 1008 h, dose 0.2-0.6 mg/kg
Mus musculus [21] = assay: Anti-osteoporosis activity in ovariectomized C57BL/6 mouse assessed as prevention of bone loss by measuring recovery of BV/TV in femur at 0.6 mg/kg, ip administered every day for 6 weeks by 3D-imaging analysis relative to control; assay type: functional
Mus musculus [22] = assay: Anti-osteoporosis activity in ovariectomized C57BL/6 mouse assessed as prevention of bone loss by measuring recovery of trabecular thickness in femur at 0.2 to 0.6 mg/kg, ip administered every day for 6 weeks by 3D-imaging analysis; assay type: functional, organism-based; conditions: dose 0.2-0.6 mg/kg

CCNC(=O)[C@@H](C)[C@H]1CC[C@H]2[C@@H]3CC=C4C(C)(C)c5nnsc5C[C@]4(C)[C@H]3CC[C@]12C
viability at 48 h, 10 µM [1]: ≥ 100%
AUC(0-t) at 24 h [2]: 509 ng·h/mL
clearance [3]: 31.7 mL/min/kg
Tmax [4]: 40.2 min
Cmax [5]: 230 ng/mL
AUC(0-t) at 24 h [6]: 654 ng·h/mL
AUC(0-inf) [7]: 688 ng·h/mL
bioavailability [8]: 13.1%
Activity (BMMC [9]): Dose-Dependent Effect
Activity (BMMC [10]): Dose-Dependent Effect
inhibition at 0.1 µM (BMMC [11]): 40.2%
Activity (BMMC [12]): Active
Activity (BMMC [13]): Active
Activity (BMMC [14]): Active
Activity (BMMC [15]): Dose-Dependent Effect
Activity (BMMC [16]): Active
Activity (BMMC [17]): Active
Activity (BMMC [18]): Active
Activity (BMMC [19]): Active
Activity [20]: Non-Toxic
Activity (Mus musculus [21]): 57.15%
Activity (Mus musculus [22]): inactive
